Laboratory results as given in publication PMC13266999, “Designing Antibiotics with Inherent Resistance to Efflux as a Strategy to Revive Discovery against Multidrug-Resistant Pathogens” (Journal of Medicinal Chemistry, 2026).
Values after ≈ are worked out from the molar mass of the structure shown. Values joined by “and” are separate entries in the source; they are usually repeats but may differ in a detail not shown here. Equal entries are not always repeated. Where two headings read alike, the source gives them in different places.

Legend:
WT E. coli DNA gyrase = target: T1, WT E. coli DNA gyrase (Escherichia coli, UniProt P0AES4+P0AES6); assay: DNA gyrase inhibition assay; assay type: biochemical
T1 construct: purchased Inspiralis Ltd. (Norwich, UK)
Method: Gyrase inhibition was determined through biochemical assay kits from Inspiralis Ltd. (Norwich, UK), according to manufacturer’s instructions, and as described previously. Briefly, 1U of enzyme was incubated with 0.5 μg of relaxed […] DNA in the presence of compound in 1% DMSO for 30 min at 37 °C. A control reaction contained no compound but still contained 1% DMSO. The reactions were stopped through Stop Buffer addition and the DNA separated through addition of chloroform/iso-amyl alcohol (24;1). Samples were run on a 1% agarose gel at 75 V for 2 h, which was then stained with 1 μg/mL ethidium bromide and visualized using a NuGenius gel imager (Syngene). The intensity of the supercoiled DNA band was quantified using Syngene software, and the inhibition of the supercoiling of the DNA by the compounds was calculated.

MRSA ATCC 33591 = assay: Neutropenic murine thigh infection model; settings: oral 50 mg/kg TID at 2, 8, and 14 h postinfection; at 26 h
[1] = Kinetic aqueous solubility; assay type: physicochemical; settings: phosphate-buffered saline with 2% DMSO, pH 7.4, aqueous buffer, kinetic from dmso stock
Method: Kinetic aqueous solubility was determined using a standard LC-UV/MS-based assay. Test compounds were prepared from 10 mM DMSO stock solutions and diluted to a nominal concentration of 200 μM in phosphate-buffered saline (PBS, pH 7.4) containing 2% DMSO. Parallel dilutions in DMSO were used as reference standards. Samples were equilibrated at room temperature for 2 h with shaking, then filtered, and the filtrates were analyzed by LC-UV with mass spectrometric confirmation of the analyte peak. Solubility was determined by comparing the UV peak area of the PBS filtrate with those of the DMSO reference standards. The effective range of the assay was 10–200 μM.

WI38 = assay: Toxicity in nontumor eukaryotic cell line; assay type: cell-based; settings: 100 μM, the highest concentration tested
COX1(h) = target: T2, COX1(h) (Homo sapiens, UniProt P23219); assay: SafetyScreen44; assay type: biochemical; settings: enzymatic activity, 1.0E-05 M
T2 construct: purchased Eurofins (SafetyScreen44)
T2 sequence (P23219 24-599): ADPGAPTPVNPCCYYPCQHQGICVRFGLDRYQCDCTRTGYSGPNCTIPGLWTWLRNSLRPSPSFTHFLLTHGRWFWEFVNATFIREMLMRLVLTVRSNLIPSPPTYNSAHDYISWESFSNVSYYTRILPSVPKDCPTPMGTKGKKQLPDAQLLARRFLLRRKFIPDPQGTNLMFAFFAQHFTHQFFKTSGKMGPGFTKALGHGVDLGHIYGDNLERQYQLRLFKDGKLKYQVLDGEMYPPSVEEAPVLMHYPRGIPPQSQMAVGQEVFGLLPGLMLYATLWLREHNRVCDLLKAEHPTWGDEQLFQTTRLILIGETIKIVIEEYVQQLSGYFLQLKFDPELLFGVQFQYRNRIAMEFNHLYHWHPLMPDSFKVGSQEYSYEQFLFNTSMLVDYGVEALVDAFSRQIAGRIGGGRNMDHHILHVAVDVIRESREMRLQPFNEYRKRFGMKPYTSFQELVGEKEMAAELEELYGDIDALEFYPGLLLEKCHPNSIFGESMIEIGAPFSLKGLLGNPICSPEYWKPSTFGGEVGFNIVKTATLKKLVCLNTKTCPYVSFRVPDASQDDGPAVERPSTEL
Method: (§1) Off-target pharmacology was evaluated using the Eurofins SafetyScreen44 in vitro panel. […] Binding assays were performed using radioligand displacement, and enzyme or uptake assays measured inhibition of control activity using validated detection methods (scintillation counting, fluorimetry or photometry). Responses were expressed as percent inhibition of control binding or activity. Based on Eurofins interpretation guidelines, effects ≥50% were considered significant, effects between 25% and 50% weak to moderate, and effects <25% were not considered biologically relevant.

COX2(h) = target: T3, COX2(h) (Homo sapiens, UniProt P35354); assay: SafetyScreen44; assay type: biochemical; settings: enzymatic activity, 1.0E-05 M
T3 construct: purchased Eurofins (SafetyScreen44)
T3 sequence (P35354 18-604): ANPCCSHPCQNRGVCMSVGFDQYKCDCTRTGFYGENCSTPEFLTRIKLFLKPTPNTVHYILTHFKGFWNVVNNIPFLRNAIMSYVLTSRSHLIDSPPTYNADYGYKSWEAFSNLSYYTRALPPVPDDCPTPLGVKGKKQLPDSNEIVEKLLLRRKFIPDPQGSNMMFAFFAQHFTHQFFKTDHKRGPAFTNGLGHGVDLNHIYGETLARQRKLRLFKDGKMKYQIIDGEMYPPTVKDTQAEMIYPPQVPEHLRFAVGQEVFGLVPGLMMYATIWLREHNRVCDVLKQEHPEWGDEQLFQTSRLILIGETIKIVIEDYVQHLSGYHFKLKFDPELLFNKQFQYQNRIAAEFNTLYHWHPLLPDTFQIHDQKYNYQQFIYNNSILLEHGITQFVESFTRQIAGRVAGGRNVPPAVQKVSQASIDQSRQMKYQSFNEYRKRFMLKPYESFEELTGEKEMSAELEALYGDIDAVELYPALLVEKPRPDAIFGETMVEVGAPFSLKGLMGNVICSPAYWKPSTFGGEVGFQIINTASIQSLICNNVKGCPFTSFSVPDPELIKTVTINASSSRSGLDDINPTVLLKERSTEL
Method: as §1

Lck kinase (h) = target: T4, Lck kinase (h) (Homo sapiens, UniProt P06239); assay: SafetyScreen44; assay type: biochemical; settings: enzymatic activity, 1.0E-05 M
T4 construct: purchased Eurofins (SafetyScreen44)
T4 sequence (P06239 whole entry): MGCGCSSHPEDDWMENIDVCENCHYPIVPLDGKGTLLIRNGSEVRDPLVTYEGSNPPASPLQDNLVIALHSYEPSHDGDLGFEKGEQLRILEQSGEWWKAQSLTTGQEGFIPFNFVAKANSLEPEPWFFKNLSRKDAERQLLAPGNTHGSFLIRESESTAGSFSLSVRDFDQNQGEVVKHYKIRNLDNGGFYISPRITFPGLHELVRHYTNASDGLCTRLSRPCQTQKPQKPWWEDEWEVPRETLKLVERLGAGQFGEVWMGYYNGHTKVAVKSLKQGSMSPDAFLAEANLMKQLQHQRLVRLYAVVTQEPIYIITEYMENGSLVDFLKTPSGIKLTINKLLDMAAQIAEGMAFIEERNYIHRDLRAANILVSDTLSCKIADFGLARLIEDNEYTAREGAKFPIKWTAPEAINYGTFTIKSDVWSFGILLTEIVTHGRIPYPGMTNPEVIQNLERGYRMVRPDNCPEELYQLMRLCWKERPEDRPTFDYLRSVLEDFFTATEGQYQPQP
Method: as §1

PDE3A (h) = target: T5, PDE3A (h) (Homo sapiens, UniProt Q14432); assay: SafetyScreen44; assay type: biochemical; settings: enzymatic activity, 1.0E-05 M
T5 construct: purchased Eurofins (SafetyScreen44)
T5 sequence (Q14432 whole entry): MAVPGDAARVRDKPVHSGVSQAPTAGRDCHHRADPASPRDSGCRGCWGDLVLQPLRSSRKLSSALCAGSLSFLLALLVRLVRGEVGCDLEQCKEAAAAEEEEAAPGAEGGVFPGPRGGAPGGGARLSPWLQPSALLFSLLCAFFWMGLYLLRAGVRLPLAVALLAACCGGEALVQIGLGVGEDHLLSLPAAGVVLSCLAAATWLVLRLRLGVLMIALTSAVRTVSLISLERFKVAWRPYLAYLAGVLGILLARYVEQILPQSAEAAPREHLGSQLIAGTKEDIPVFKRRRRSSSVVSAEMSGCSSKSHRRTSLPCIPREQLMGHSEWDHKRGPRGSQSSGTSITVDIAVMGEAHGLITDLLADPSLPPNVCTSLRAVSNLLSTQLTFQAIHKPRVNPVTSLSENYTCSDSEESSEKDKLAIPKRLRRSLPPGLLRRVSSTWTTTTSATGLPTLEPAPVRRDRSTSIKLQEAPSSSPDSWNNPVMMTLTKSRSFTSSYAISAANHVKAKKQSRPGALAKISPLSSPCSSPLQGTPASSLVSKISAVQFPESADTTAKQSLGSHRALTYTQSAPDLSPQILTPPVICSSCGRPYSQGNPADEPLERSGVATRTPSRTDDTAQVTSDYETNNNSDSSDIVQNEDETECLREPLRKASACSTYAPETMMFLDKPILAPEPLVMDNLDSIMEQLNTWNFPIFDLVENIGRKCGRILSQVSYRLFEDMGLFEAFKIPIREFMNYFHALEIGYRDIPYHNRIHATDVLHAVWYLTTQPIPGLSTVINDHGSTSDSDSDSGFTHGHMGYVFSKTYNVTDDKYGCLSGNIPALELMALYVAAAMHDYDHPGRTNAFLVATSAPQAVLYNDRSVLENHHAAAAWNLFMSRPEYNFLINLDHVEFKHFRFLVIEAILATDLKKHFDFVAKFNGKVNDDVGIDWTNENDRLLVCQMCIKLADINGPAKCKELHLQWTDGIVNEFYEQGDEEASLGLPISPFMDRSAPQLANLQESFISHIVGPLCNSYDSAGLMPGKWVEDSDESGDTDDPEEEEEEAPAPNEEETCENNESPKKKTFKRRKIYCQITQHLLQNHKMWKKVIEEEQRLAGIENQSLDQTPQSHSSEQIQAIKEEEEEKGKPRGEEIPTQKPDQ
Method: as §1

PDE4D2 (h) = target: T6, PDE4D2 (h) (Homo sapiens, UniProt Q08499); assay: SafetyScreen44; assay type: biochemical; settings: enzymatic activity, 1.0E-05 M
T6 construct: purchased Eurofins (SafetyScreen44)
Method: as §1

acetylcholinesterase (h) = target: T7, acetylcholinesterase (h) (Homo sapiens, UniProt P22303); assay: SafetyScreen44; assay type: biochemical; settings: enzymatic activity, 1.0E-05 M
T7 construct: purchased Eurofins (SafetyScreen44)
T7 sequence (P22303 32-614): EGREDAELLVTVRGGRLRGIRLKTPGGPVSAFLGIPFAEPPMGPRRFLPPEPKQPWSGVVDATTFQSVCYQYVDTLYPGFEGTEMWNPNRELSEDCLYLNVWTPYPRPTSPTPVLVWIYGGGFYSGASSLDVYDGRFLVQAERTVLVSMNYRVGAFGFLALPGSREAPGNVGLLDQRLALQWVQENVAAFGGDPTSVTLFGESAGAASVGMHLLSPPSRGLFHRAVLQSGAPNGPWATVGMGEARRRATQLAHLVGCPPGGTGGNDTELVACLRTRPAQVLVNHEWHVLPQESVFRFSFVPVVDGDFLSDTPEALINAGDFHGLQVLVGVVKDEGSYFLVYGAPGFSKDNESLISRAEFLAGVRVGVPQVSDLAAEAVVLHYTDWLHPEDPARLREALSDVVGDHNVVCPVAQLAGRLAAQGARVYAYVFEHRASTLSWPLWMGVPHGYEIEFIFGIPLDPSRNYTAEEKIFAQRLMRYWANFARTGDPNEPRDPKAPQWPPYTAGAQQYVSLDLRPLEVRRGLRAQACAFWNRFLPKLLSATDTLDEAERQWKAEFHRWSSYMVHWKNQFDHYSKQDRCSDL
Method: as §1

AR (h) = assay: SafetyScreen44; set-up: species or system human; settings: agonist radioligand, specific binding, 1.0E-05 M
Method: as §1

CYP2B6 = CYP2B6 (Homo sapiens, UniProt P20813); assay: CYP inhibition; settings: HLM, bupropion substrate
CYP2B6, sequence (P20813 whole entry): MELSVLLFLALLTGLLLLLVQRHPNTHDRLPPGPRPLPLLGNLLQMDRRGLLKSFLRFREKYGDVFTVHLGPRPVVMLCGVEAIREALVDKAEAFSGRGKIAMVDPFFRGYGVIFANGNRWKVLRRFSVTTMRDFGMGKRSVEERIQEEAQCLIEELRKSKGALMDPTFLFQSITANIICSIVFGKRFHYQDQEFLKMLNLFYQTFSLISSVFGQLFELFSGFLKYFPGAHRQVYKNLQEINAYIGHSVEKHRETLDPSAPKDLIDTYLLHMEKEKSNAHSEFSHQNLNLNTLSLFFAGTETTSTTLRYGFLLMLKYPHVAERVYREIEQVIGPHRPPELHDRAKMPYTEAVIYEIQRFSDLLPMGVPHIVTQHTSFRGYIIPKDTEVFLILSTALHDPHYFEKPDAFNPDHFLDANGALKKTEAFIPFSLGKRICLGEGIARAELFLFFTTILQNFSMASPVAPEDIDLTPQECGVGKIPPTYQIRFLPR
Method: (§2) Cytochrome P450 inhibition was assessed in vitro using human recombinant enzymes in microsomal preparations. […] Enzyme activity was quantified by monitoring formation of substrate-specific metabolites, and percent inhibition was calculated relative to vehicle control.

CYP2C8 = CYP2C8 (Homo sapiens, UniProt P10632); assay: CYP inhibition; settings: HLM, amodiaquine substrate
CYP2C8, sequence (P10632 whole entry): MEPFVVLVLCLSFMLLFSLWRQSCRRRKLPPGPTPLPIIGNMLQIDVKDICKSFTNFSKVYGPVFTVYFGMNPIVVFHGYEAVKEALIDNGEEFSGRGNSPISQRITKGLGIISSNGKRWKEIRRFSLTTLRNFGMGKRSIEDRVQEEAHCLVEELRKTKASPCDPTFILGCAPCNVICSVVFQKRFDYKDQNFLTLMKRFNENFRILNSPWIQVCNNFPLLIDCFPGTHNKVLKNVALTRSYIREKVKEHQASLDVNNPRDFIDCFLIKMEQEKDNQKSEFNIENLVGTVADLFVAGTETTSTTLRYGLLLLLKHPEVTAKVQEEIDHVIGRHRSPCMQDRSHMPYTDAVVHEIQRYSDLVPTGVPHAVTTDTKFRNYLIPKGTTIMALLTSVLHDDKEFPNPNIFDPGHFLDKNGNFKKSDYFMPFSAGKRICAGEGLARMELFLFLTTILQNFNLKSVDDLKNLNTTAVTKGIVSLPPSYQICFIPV
Method: as §2

CYP2D6 = CYP2D6 (Homo sapiens, UniProt P10635); assay: CYP inhibition; settings: HLM, dextromethorphan substrate, 10 μM
CYP2D6, sequence (P10635 whole entry): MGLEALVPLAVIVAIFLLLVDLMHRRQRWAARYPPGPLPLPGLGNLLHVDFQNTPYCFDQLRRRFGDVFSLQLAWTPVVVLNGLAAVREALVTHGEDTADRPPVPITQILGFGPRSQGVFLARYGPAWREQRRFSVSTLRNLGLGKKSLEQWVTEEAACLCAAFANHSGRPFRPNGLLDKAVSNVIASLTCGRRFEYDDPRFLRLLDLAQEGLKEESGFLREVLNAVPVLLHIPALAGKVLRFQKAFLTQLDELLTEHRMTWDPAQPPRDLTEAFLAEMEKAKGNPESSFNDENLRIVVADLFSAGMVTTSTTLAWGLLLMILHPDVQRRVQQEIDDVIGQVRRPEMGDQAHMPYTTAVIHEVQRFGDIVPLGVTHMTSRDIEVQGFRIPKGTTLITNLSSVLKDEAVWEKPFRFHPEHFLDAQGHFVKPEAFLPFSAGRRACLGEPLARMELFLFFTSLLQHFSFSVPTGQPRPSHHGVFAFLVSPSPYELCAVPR
Method: as §2

CYP3A = assay: CYP inhibition; settings: HLM; for inhibition at 10 µM: human, human liver microsomes, CYP3A inhibition
Method: as §2

[2] = Maximum tolerated dose study; settings: for B.W.: animals N 1-3;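 for all read-outs here: male ICR mice given oral doses under a stepwise escalation scheme to find the highest tolerated dose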
[3] = tested on: NorA overexpressing strain NCTC 13616; assay: Reserpine growth (efflux inhibition) assay; settings: for AUC of growth curve: biological replicates 1-3; for efflux liability in reserpine assay: 0.5x MIC with vs without reserpine
Method: Statistical analyses were performed with GraphPad Prism V9.5.0. […] Unpaired t tests were used when comparing two samples in the gyrase assays.

[4] = probe midazolam, midazolam substrate
[5] = probe testosterone, testosterone substrate
[6] = PO 100 mg/kg, 72 hrs after final dose, 100 mg/kg
[7] = PO 100 mg/kg, Pre-dose, 100 mg/kg
[8] = PO 200 mg/kg, 72 hrs after final dose, 200 mg/kg
[9] = PO 200 mg/kg, Pre-dose, 200 mg/kg
[10] = PO 400 mg/kg, 72 hrs after final dose, 400 mg/kg
[11] = PO 400 mg/kg, Pre-dose, 400 mg/kg

## C[C@H]1COc2c(N3CCN(C)CC3)c(F)cc3c(=O)c(C(=O)O)cn1c23 [Levofloxacin, (S)-9-Fluoro-3-methyl-10-(4-methylpiperazin-1-yl)-7-oxo-2,3-dihydro-7H-[1,4]oxazino[2,3,4-ij]quinoline-6-carboxylic acid, reference compound]
WT E. coli DNA gyrase; wild-type E. coli DNA gyrase, read-out: IC50 (converted)
  IC50: 526 nM
MRSA ATCC 33591
  bacterial counts in thigh: 4.51 log10 CFU/g

## C[C@H]1COc2c(N3CC[C@@H](Nc4ncccn4)C3)c(F)cc3c(=O)c(C(=O)O)cn1c23 [Compound 46, (S)-9-Fluoro-3-methyl-7-oxo-10-((R)-3-(pyrimidin-2-ylamino)pyrrolidin-1-yl)-2,3-dihydro-7H-[1,4]oxazino[2,3,4-ij]quinoline-6-carboxylic acid]
WT E. coli DNA gyrase
  IC50: 682 nM
[1]
  solubility at 2 h: 183 µM (≈ 77.9 µg/mL)
WI38
  toxicity in WI38: nontoxic
COX1(h)
  % Inhibition: 30.3185% and 30.3%
COX2(h)
  % Inhibition: 8.111%
Lck kinase (h)
  % Inhibition: -2.891%
PDE3A (h)
  % Inhibition: 7.502%
PDE4D2 (h)
  inhibition at 10 µM: 14.8%
Acetylcholinesterase (h)
  % Inhibition: 32.9861% and 33.0%
AR (h)
  % Inhibition: 4.241%
CYP2B6; human, human liver microsomes, probe bupropion, CYP2B6 inhibition
  inhibition at 10 µM: -1.3%
CYP2C8; 10 μM
  CYP2C8 inhibition: 3.1%
CYP2D6
  CYP2D6 inhibition: 0.0%
CYP3A; [4]
  inhibition at 10 µM: 25.2%
CYP3A; [5]
  inhibition at 10 µM: 6.5%
[2]; [6]
  B.W.: 25 and 27
[2]; [7]
  B.W.: 24 and 25
[2]; [8]
  B.W.: 26 and 27
[2]; [9]
  B.W.: 24 and 23
[2]; [10]
  B.W.: 26 and 22 and 24
[2]; [11]
  B.W.: 21 and 20 and 22
[3]; 0.25 MIC + R (reserpine)
  AUC of growth curve: 3.991 and 3.857 and 2.348
[3]; 0.25 MIC
  AUC of growth curve: 5.243 and 5.279 and 3.696
[3]; 0.5 MIC + R (reserpine)
  AUC of growth curve: 3.930 and 3.864 and 2.013
[3]; 0.5 MIC
  AUC of growth curve: 4.798 and 3.349 and 3.713
[3]
  efflux liability in reserpine assay: minimal shift

## Cc1cc(C)nc(N[C@@H]2CCN(c3c(F)cc4c(=O)c(C(=O)O)cn5c4c3OC[C@@H]5C)C2)n1 [Compound 50, (S)-10-((R)-3-((4,6-Dimethylpyrimidin-2-yl)amino)pyrrolidin-1-yl)-9-fluoro-3-methyl-7-oxo-2,3-dihydro-7H-[1,4]oxazino[2,3,4-ij]quinoline-6-carboxylic acid]
[1]
  solubility at 2 h: 156 µM (≈ 70.6 µg/mL)
WI38
  toxicity in WI38: nontoxic
COX1(h)
  inhibition at 10 µM: 15%
COX2(h)
  inhibition at 10 µM: 25.9%
Lck kinase (h)
  inhibition at 10 µM: 2.87%
PDE3A (h)
  inhibition at 10 µM: 12.2%
PDE4D2 (h)
  inhibition at 10 µM: 31.8%
Acetylcholinesterase (h)
  inhibition at 10 µM: 34.2%
AR (h)
  % Inhibition: 3.169%
CYP2B6; 10 μM
  CYP2B6 inhibition: 4.821% and < 10%
CYP2C8; human, human liver microsomes, probe amodiaquine, CYP2C8 inhibition
  inhibition at 10 µM: 13.4%
CYP2D6
  CYP2D6 inhibition: 3.804% and < 10%
CYP3A; midazolam substrate, 10 μM
  CYP3A inhibition: 10.5%
CYP3A; [4]
  inhibition at 10 µM: 10.5%
CYP3A; [5]
  inhibition at 10 µM: 6.32%
[2]; PO 100 mg/kg, 1 hr after 1st dosing
  Response (death/test): 0/3
[2]; PO 100 mg/kg, 1 hr after 2nd dosing
  Response (death/test): 0/3
[2]; PO 100 mg/kg, 1 hr after 3rd dosing
  Response (death/test): 0/3
[2]; PO 100 mg/kg, 2 hrs after 3rd dosing
  Response (death/test): 0/3
[2]; PO 100 mg/kg, 6 hrs after 1st dosing
  Response (death/test): 0/3
[2]; PO 100 mg/kg, 6 hrs after 2nd dosing
  Response (death/test): 0/3
[2]; PO 100 mg/kg, 24 hrs after 3rd dosing
  Response (death/test): 0/3
[2]; PO 100 mg/kg, 48 hrs after 3rd dosing
  Response (death/test): 0/3
[2]; PO 100 mg/kg, 72 hrs after 3rd dosing
  Response (death/test): 0/3
[2]; [6]
  B.W.: 24 and 25
[2]; [7]
  B.W.: 24 and 23
[2]; PO 200 mg/kg, 1 hr after 1st dosing
  Response (death/test): 0/3
[2]; PO 200 mg/kg, 1 hr after 2nd dosing
  Response (death/test): 0/3
[2]; PO 200 mg/kg, 1 hr after 3rd dosing
  Response (death/test): 0/3
[2]; PO 200 mg/kg, 2 hrs after 3rd dosing
  Response (death/test): 0/3
[2]; PO 200 mg/kg, 6 hrs after 1st dosing
  Response (death/test): 0/3
[2]; PO 200 mg/kg, 6 hrs after 2nd dosing
  Response (death/test): 0/3
[2]; PO 200 mg/kg, 24 hrs after 3rd dosing
  Response (death/test): 0/3
[2]; PO 200 mg/kg, 48 hrs after 3rd dosing
  Response (death/test): 0/3
[2]; PO 200 mg/kg, 72 hrs after 3rd dosing
  Response (death/test): 0/3
[2]; [8]
  B.W.: 25 and 28
[2]; [9]
  B.W.: 23 and 24
[2]; PO 400 mg/kg, 1 hr after 1st dosing
  Response (death/test): 0/3
[2]; PO 400 mg/kg, 1 hr after 2nd dosing
  Response (death/test): 0/3
[2]; PO 400 mg/kg, 1 hr after 3rd dosing
  Response (death/test): 0/3
[2]; PO 400 mg/kg, 2 hrs after 3rd dosing
  Response (death/test): 0/3
[2]; PO 400 mg/kg, 6 hrs after 1st dosing
  Response (death/test): 0/3
[2]; PO 400 mg/kg, 6 hrs after 2nd dosing
  Response (death/test): 0/3
[2]; PO 400 mg/kg, 24 hrs after 3rd dosing
  Response (death/test): 0/3
[2]; PO 400 mg/kg, 48 hrs after 3rd dosing
  Response (death/test): 0/3
[2]; PO 400 mg/kg, 72 hrs after 3rd dosing
  Response (death/test): 0/3
[2]; [10]
  B.W.: 25 and 23
[2]; [11]
  B.W.: 20 and 21
MRSA ATCC 33591
  bacterial counts in thigh: 4.6 log10 CFU/g
  reduction relative to the vehicle: 4.1 log10 CFU/g
[3]; 0.25 MIC + R (reserpine)
  AUC of growth curve: 2.985 and 3.342 and 3.404
[3]; 0.25 MIC
  AUC of growth curve: 3.519 and 4.693 and 4.851
[3]; 0.5 MIC + R (reserpine)
  AUC of growth curve: 1.548 and 1.586 and 2.254
[3]; 0.5 MIC
  AUC of growth curve: 2.203 and 2.425 and 1.859
[3]
  efflux liability in reserpine assay: minimal shift
